Key:
aMHC-GFP-MTTFs = test: Quantification of GFP+ cells in aMHC-GFP reporter MTTFs; format: cell-based, mouse; details: for GFP expression (aMHC-GFP): agent alone
Procedure: (§1) To enhance the reprogramming potential of miRNAs, AA and BMP4 were added one day after miR-transfection (FIG. 1A). Between 4-6 days, spontaneously contracting cells appeared in groups treated with […], miR-208b-3p, or miR-499-5p, but not with miR-208a-3p and miR-208b-5p or all miRNA. The latter groups were excluded from further experiments. To further confirm the results, MTTFs were isolated from aMHC-GFP reporter mice (aMHC-GFP-MTTFs) and quantified GFP+ cells after treating with […], miR-208b-3p, or miR-499-5p in combination with AA and BMP4. […] TNNT2+ cells occupied 1.8±0.6% of MTTFs treated with miR-208b-3p, AA and BMP4 by flow cytometry analyses. This reprogramming rate is smaller than the number of aMHC-GFP+ cells because TNNT2 is a more specific and mature marker for CMs.
(§2) Mouse tail-tip fibroblasts (MTTFs) isolated from 1-4 month old transgenic mice carrying a GFP reporter driven by αMHC or human ubiquitin C (UBC) promoters were cultured in DMEM/F-12 (Invitrogen) containing 10% FBS (Atlanta Biologicals), 1% Glutamax (Invitrogen), 1% non-essential amino acids (Invitrogen) and 1% Antibiotic-Antimycotic (Invitrogen). αMHC-GFP transgenic mice were kindly given by Dr. Mark Sussman (San Diego State University) and UBC-GFP mice (C57BL/6-Tg(UBC-GFP)30Scha/J) were purchased from the Jackson Laboratory. After 3-5 passages, MTTFs were frozen until use. […]

[1] = tested on: mouse tail-tip fibroblasts (MTTFs); test: Spontaneous contraction of miRNA-transfected MTTFs after adding AA and BMP4; format: cell-based; details: AA and BMP4 added one day after miR-transfection; between 4-6 days
Procedure: as §1
(§3) Mouse tail-tip fibroblasts (MTTFs) isolated from 1-4 month old transgenic mice carrying a GFP reporter driven by αMHC or human ubiquitin C (UBC) promoters were cultured in DMEM/F-12 (Invitrogen) containing 10% FBS (Atlanta Biologicals), 1% Glutamax (Invitrogen), 1% non-essential amino acids (Invitrogen) and 1% Antibiotic-Antimycotic (Invitrogen). αMHC-GFP transgenic mice were kindly given by Dr. Mark Sussman (San Diego State University) and UBC-GFP mice (C57BL/6-Tg(UBC-GFP)30Scha/J) were purchased from the Jackson Laboratory. After 3-5 passages, MTTFs were frozen until use. MTTFs at 70-80% of confluence were transfected with a synthetic miRNA mimic (20 nM), miR-1a-2-5p (Qiagen, MSY0017047, 5′-[…]-3′)(SEQ ID NO: 135), miR-208a-3p (Qiagen, MSY0000520, 5′-[…]-3′)(SEQ ID NO: 136), miR-208b-3p (Qiagen, MSY0004939, 5′-[…]-3′)(SEQ ID NO: 1), miR-208b-5p (Qiagen, MSY0017280, 5′-[…]-3′)(SEQ ID NO: 137), miR-499-5p (Qiagen, MSY0003482, 5′-[…]-3′) (SEQ ID NO: 3) or Scramble-miR (Dharmacon, CN-001000-01-05) using Lipofectamine 2000 (Invitrogen), and cultured in advanced DMEM/F12 (Invitrogen) containing 5% FBS (Atlanta Biologicals), 0.5% Glutamax (Invitrogen), 0.5% non-essential amino acids and 1% Antibiotic-Antimycotic (Invitrogen) with or without AA (ascorbic acid, Sigma, 0.2 mM) and BMP4 (R&D Systems, 10 ng/ml) for fibroblast reprogramming. Cells on a culture dish spontaneously aggregated as a patch-like CMT on day 10. In the case of no spontaneous formation, the border of a culture dish was scratched and cells were lifted up with a pipette to expedite cell aggregation into a CMT.

Myh6 = test: mRNA expression of Myh6 (aMHC) in treated MTTFs; format: cell-based, mouse; details: miRNA with AA and BMP4
Procedure: as §1, §2

[2] = tested on: mouse tail-tip fibroblasts (MTTFs); test: Reprogramming of MTTFs with miRNA mimics alone: CM gene expression, ACTN2 immunocytochemistry; format: cell-based; details: miRNA mimic alone, without AA and BMP4
From the text: The reprogramming potential of muscle-specific miRNA mimics, miR-1a-2-5p, miR-208a-3p, miR-208b-3p, miR-208b-5p, and miR-499-5p was investigated in mouse tail-tip fibroblasts (MTTFs). […] Immunocytochemistry confirmed expression of a CM marker sarcomeric α-actinin (ACTN2) in single miRNA transfected cells. However ACTN2 expression was diffuse, sarcomeric organization was poor and spontaneously contracting cells were not observed in any miRNA transfected MTTFs.
as §2

[3] = tested on: mouse tail-tip fibroblasts (MTTFs); test: qRT-PCR of lineage markers at day 6 (vascular-lineage reprogramming); format: cell-based; details: protocol with AA and BMP4
Procedure: as §3, with “Cells on a culture dish spontaneously aggregated as a patch-like CMT on day 10. In the case of no spontaneous formation, the border of a culture dish was scratched and cells were lifted up with a pipette to expedite cell aggregation into a CMT.” left out

O=C1O[C@H]([C@@H](O)CO)C(O)=C1O [AA, (R)-5-((S)-1,2-dihydroxyethyl)-3,4-dihydroxyfuran-2(5H)-one, reference compound]
GFP expression (aMHC-GFP) (aMHC-GFP-MTTFs): did not induce GFP expression

miR-1a-2-5p: synthetic miRNA mimic, Qiagen MSY0017047, 5′-ACAUACUUCUUUAUGUAGUACCCAUA-3′ (SEQ ID NO: 135) (chemistry not given here)
spontaneously contracting cells [1]: appeared | mRNA expression of Myh6 (Myh6): increased trend

miR-208a-3p: synthetic miRNA mimic, Qiagen MSY0000520, 5′-AUAAGACGAGCAAAAAGCUUGU-3′ (SEQ ID NO: 136) (chemistry not given here)
spontaneously contracting cells [1]: not

miR-208b-3p: synthetic miRNA mimic, Qiagen MSY0004939, 5′-AUAAGACGAACAAAAGGUUUGU-3′ (SEQ ID NO: 1) (listed as RNA, chemistry not given here; listed as Mus musculus)
expression of CM genes Mef2c, Nkx2-5, Gata4 and Myh6 [2]: most effective | spontaneously contracting cells [1]: appeared | GFP expression (aMHC-GFP-positive cells) of MTTFs (aMHC-GFP-MTTFs; miRNA in combination with AA and BMP4): 22.0±2.6% | mRNA expression of Myh6 (Myh6): significantly increased | expression of EC and SMC genes (qRT-PCR) [3]: increased expression

miR-208b-5p: synthetic miRNA mimic, Qiagen MSY0017280, 5′-AAGCUUUUUGCUCGCGUUAUGU-3′ (SEQ ID NO: 137) (chemistry not given here)
spontaneously contracting cells [1]: not

miR-499-5p: synthetic miRNA mimic, Qiagen MSY0003482, 5′-UUAAGACUUGCAGUGAUGUUU-3′ (SEQ ID NO: 3) (listed as RNA, chemistry not given here; listed as Mus musculus)
spontaneously contracting cells [1]: appeared

B1: BMP4: secreted disulfide-linked homodimeric BMP-4, a TGF-beta superfamily ligand (R&D Systems) (protein, listed as Homo sapiens)
chain: SPKHHPQRSRKKNKNCRRHSLYVDFSDVGWNDWIVAPPGYQAFYCHGDCPFPLADHLNSTNHAIVQTLVNSVNSSIPKACCVPTELSAISMLYLDEYDKVVLKNYQEMVVEGCGCR
modifications: homodimer
GFP expression (aMHC-GFP) (aMHC-GFP-MTTFs): did not induce GFP expression

From US10206955B2, “Compositions of ascorbic acid and bone morphogenetic protein 4 (BMP-4) for cell growth and uses related thereo” (EMORY UNIVERSITY, priority 2014, dated 2019)
